The target of the assay is T1, methionine aminopeptidase 1 (MetAP1) (Plasmodium yoelii, UniProt Q7RFT5).
T1 sequence (Q7RFT5 1-491): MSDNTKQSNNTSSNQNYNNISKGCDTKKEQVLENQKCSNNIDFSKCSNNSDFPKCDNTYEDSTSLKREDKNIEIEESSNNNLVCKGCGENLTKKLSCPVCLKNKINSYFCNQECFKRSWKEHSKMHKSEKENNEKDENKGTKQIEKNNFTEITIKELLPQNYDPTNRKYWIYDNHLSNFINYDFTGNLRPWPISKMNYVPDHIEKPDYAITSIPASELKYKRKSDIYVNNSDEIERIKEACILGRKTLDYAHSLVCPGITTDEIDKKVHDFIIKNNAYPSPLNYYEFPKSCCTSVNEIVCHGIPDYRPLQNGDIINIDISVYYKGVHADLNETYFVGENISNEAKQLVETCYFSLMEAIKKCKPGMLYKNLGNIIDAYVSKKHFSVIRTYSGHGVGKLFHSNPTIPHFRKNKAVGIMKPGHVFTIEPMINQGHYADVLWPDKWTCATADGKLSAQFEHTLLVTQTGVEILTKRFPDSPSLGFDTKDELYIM
Description: competition ultrafiltration with HPLC-UV. Type of assay: binding. The conditions noted are these: 4 °C; competes with fragments 4-9.

Each structure is given as a SMILES string.

Regarding `CSCC[C@H](N)C(=O)O` [methionine], the “competition ultrafiltration with HPLC-UV” value was “methionine was able to compete against lower-affinity ligands more efficiently than higher-affinity ligands”.

Source of the values: paper PMC3166647 (Analytical and bioanalytical chemistry, 2011).
